In one experiment the target is CDK2/Cyclin A (Homo sapiens, UniProt P24941). The experiment in a line: Inhibition of CDK2/Cyclin A Retinoblastoma Kinase Activity. Type of experiment: biochemical. The settings on record: for pKi: apparent Ki, CDK2/proteolyzed cyclin A, Rb fragment substrate, 25 μM ATP. A digest of the protocol:
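CDK2 (10 or 19 nM), insect-cell expressed, gel-filtration purified with truncated cyclin A; Rb fragment substrate; 25 μM ATP; 10 mM HEPES pH 7.4, 10 mM MgCl2; 30° C, 60 or 75 min; EDTA stop; phosphocellulose/nitrocellulose capture, phosphorimager. % inhibition vs DMSO control, no-enzyme background subtracted.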

For another experiment, the system named is HCT-116 cell line. The experiment in a line: Inhibition of cell growth, tetrazolium salt (MTT) assay. Type of experiment: cell-based. The following applies: for HCT-116 % Inhibition at 0.25 μM: 0.25 μM compound; for pIC50: Homo sapiens, HCT-116, 120 h, MTT, three to five days, read-out: HCT-116 IC50. A digest of the protocol:
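Growth inhibition by MTT reduction at 540 nm (0.2 mg/mL, 4 h at 37° C, formazan dissolved in DMSO), normalized to cells given only 0.5% v/v DMSO. HCT-116 cultures in McCoy's 5A were dosed 4 h post-plating and kept three to five days at 37° C, 5% CO2.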

Experiment [1] deals with human CDK4 and genetically truncated (1-264) cyclin D3 (Homo sapiens, UniProt P11802). The experiment in a line: Inhibition of CDK4/Cyclin D Retinoblastoma Kinase Activity. Type of experiment: biochemical. The settings on record: for pKi: apparent Ki, CDK4/truncated cyclin D3, Rb fragment substrate, 25 μM ATP. On the procedure:
Cyclin-dependent kinase activity was measured by quantifying the enzyme-catalyzed, time-dependent incorporation of radioactive phosphate from [^32P]ATP or [^33P]ATP into a protein substrate. Unless noted otherwise, assays were performed in 96-well plates in a total volume of 50 μL, in the presence of 10 mM HEPES (N-[2-hydroxyethyl]piperazine-N′-[2-ethanesulfonic acid]) (pH 7.4), 10 mM MgCl2, 25 μM adenosine triphosphate (ATP), 1 mg/mL ovalbumin, 5 μg/mL leupeptin, 1 mM dithiothreitol, 10 mM β-glycerophosphate, 0.1 mM sodium vanadate, 1 mM sodium fluoride, 2.5 mM ethylene glycol-bis(β-aminoethyl ether)-N,N,N′N′-tetraacetic acid (EGTA), 2% (v/v) dimethylsulfoxide, and 0.03-0.4 μCi [^32/33P]ATP per reaction. Reactions were initiated with enzyme, incubated at 30° C., and terminated after 20 minutes by the addition of ethylenediaminetetraacetic acid (EDTA) to 250 mM. The phosphorylated substrate was then captured on a nitrocellulose or phosphocellulose membrane using a 96-well filtration manifold, and unincorporated radioactivity was removed by repeated washing with 0.85% phosphoric acid. Radioactivity was quantified by exposing the dried membranes to a phosphorimager.
Inhibition was measured relative to control wells that contained all reaction components including 2% (v/v) DMSO but no compound, after subtraction of background radioactivity measured in the absence of enzyme. Apparent Ki values of discrete compounds were measured by assaying enzyme activity in the presence of different inhibitor compound concentrations and subtracting the background radioactivity measured in the absence of enzyme. The kinetic parameters (kcat, Km for ATP) were measured for each enzyme under the usual assay conditions by determining the dependence of initial rates on ATP concentration. Inhibition data were fit to an equation for competitive inhibition using Kaleidagraph (Synergy Software), or were fit to an equation for competitive tight-binding inhibition using the software KineTic (BioKin, Ltd.).
Inhibition of CDK4/Cyclin D Retinoblastoma Kinase Activity:
A complex of human CDK4 and genetically truncated (1-264) cyclin D3 was purified using traditional biochemical chromatographic techniques from insect cells that had been co-infected with the corresponding baculovirus expression vectors (see e.g., Meijer and Kim, “Chemical Inhibitors of Cyclin-Dependent Kinases,” Methods in Enzymol,. vol. 283 (1997), pp. 113-128.). The enzyme complex (5 nM) was assayed with 0.3-0.5 μg of purified recombinant retinoblastoma protein fragment (Rb) as a substrate. The engineered Rb fragment (residues 386-928 of the native retinoblastoma protein; 62.3 kDa) contains the majority of the phosphorylation sites found in the native 106-kDa protein, as well as a tag of six histidine residues for ease of purification. Phosphorylated Rb substrate was captured by microfiltration on a nitrocellulose membrane and quantified using a phosphorimager as described above. For measurement of tight-binding inhibitors, the assay duration was extended to 60 minutes, during which the time-dependence of product formation was linear and initial rate conditions were met.

Where [2] appears, read: 0.1 μM compound, HCT-116, Table 4.

The structures appear in SMILES notation. pIC50, pKi: −log10 of the molar value. Where a name gives a salt, the structure may show the parent alone. Read-outs that look alike come from different tables or passages of the source.

human CDK4 and genetically truncated (1-264) cyclin D3, sequence (P11802 whole entry, the tested form may be a part): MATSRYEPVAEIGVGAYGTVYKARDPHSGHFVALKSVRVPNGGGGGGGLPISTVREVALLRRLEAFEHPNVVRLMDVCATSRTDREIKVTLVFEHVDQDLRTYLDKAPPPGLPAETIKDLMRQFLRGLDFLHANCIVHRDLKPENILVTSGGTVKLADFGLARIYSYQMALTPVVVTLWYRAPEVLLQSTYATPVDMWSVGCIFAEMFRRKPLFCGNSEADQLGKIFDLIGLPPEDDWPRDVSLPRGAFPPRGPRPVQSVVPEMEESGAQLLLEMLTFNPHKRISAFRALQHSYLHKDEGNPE
human CDK4 and genetically truncated (1-264) cyclin D3, sequence (P30281 1-264 partner): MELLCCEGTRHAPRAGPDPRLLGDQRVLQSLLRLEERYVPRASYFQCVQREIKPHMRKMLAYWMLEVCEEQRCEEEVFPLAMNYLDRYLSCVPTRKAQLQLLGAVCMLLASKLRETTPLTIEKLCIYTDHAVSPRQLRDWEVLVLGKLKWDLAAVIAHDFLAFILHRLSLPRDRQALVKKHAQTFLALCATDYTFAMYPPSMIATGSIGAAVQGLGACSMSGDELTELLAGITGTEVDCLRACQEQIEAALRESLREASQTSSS

`COC(=O)NC(=O)N1CCC(Nc2nc(N)c(C(=O)c3c(F)cccc3F)s2)CC1` [Example O61]: the “CDK2 % Inhibition At 0.03 μM” value on CDK2/Cyclin A (0.03 μM compound, Table 2) is 33%. The “HCT-116 % Inhibition at 0.25 μM” value in the experiment with HCT-116 cell line (HCT-116, Table 2) came to 38%. The “CDK4 % Inhibition at 0.03 μM” value in experiment [1] (0.03 μM compound, Table 2) came to 12%.
For the compound `Nc1nc(NC2CCN(C(=O)c3ccc(I)cc3)CC2)sc1C(=O)c1c(F)cccc1F` [Example Q53], the “CDK2 % Inhibition at 0.03 μM” value at CDK2/Cyclin A (0.03 μM compound, Table 4) is 60%. Moreover, the “HCT-116 % Inhibition at 0.1 μM” value in the experiment on HCT-116 cell line (setting [2]) turned out to be 0%. In the experiment on HCT-116 cell line (HCT-116, Table 4), the “HCT-116 % Inhibition at 0.25 μM” value turned out to be 22%. Besides, the “CDK4 % Inhibition at 0.03 μM” value in experiment [1] (0.03 μM compound, Table 4) is 83%.
With `Cn1cnc(-c2ccc(S(=O)(=O)N3CCC(Nc4nc(N)c(C(=O)c5c(F)cccc5F)s4)CC3)cn2)c1` [Example I5, Hydrochloride], the pKi (commonly the negative decadic logarithm of the Ki, by convention in mol/L) at CDK2/Cyclin A was 8.29; in experiment [1], 9.17. Moreover, the pIC50 – broadly, the negative decadic logarithm of the IC50, by convention in mol/L – in the experiment with HCT-116 cell line (first HCT-116 column (c4)) was 7.10; in the experiment with HCT-116 cell line (second HCT-116 column (c5)) it was 6.30.
For the compound `CCCCS(=O)(=O)N1CCC(Nc2nc(N)c(C(=O)c3c(F)cccc3F)s2)CC1` [Example P27], at CDK2/Cyclin A (0.03 μM compound, Table 3), the “CDK2 % Inhibition at 0.03 μM” value was 16%. Moreover, in the experiment on HCT-116 cell line (0.1 μM compound, HCT-116, Table 3), the “HCT-116 % Inhibition at 0.1 μM” value was determined as 4%. In addition, the “HCT-116 % Inhibition at 0.25 μM” value in the experiment on HCT-116 cell line (HCT-116, Table 3) stood at 23%. Moreover, the “CDK4 % Inhibition at 0.03 μM” value in experiment [1] (0.03 μM compound, Table 3) came out at 41%.
Regarding `Nc1nc(NC2CCN(C(=O)c3cnn(-c4ccccc4)c3C(F)(F)F)CC2)sc1C(=O)c1c(F)cccc1F` [Example R52], the “CDK2 % Inhibition at 0.03 μM” value on CDK2/Cyclin A (at 0.03 μM) amounted to 5%. In addition, the “HCT-116 % Inhibition at 0.1 μM” value in the experiment on HCT-116 cell line (HCT-116 cells, at 0.1 μM) is 2%. For the same compound, the “HCT-116 5 Inhibition at 0.25 μM” value in the experiment with HCT-116 cell line (HCT-116 cells) worked out at 49. Besides, the “CDK4 % Inhibition at 0.03 μM” value in experiment [1] (at 0.03 μM) came to 23%.
As for `Nc1nc(NC2CCN(C(=O)c3ccc(Oc4cc(Cl)cc(Cl)c4)o3)CC2)sc1C(=O)c1c(F)cccc1F` [Example R69], at CDK2/Cyclin A (at 0.03 μM), the “CDK2 % Inhibition at 0.03 μM” value was 29%. In addition, the “HCT-116 % Inhibition at 0.1 μM” value with HCT-116 cell line (HCT-116 cells, at 0.1 μM) came out at 0%. The “HCT-116 5 Inhibition at 0.25 μM” value in the experiment with HCT-116 cell line (HCT-116 cells) is given as 41. The “CDK4 % Inhibition at 0.03 μM” value in experiment [1] (at 0.03 μM) is listed as 35%.
Take `Nc1nc(NC2CCN(S(=O)(=O)c3ccc(CCCN4CCCC4)nc3)CC2)sc1C(=O)c1c(F)cccc1F` [Example I13, 1-(4-Amino-2-{1-[6-(3-pyrrolidin-1-yl-propyl)-pyridine-3-sulfonyl]-piperidin-4-ylamino}-thiazol-5-yl)-1-(2,6-difluoro-phenyl)-methanone Trifluoroacetic Acid Salt]: the pKi on CDK2/Cyclin A was 8.89; in experiment [1], 9.35. Moreover, the figures for the pIC50 in the experiment with HCT-116 cell line (first HCT-116 column (c4)) and in the experiment with HCT-116 cell line (second HCT-116 column (c5)) were 6.55 and 6.22, respectively.
Regarding `Nc1nc(NC2CCN(C(=O)c3cccc(C(F)(F)F)c3)CC2)sc1C(=O)c1c(F)cccc1F` [Example R139], the “CDK2 % Inhibition at 0.03 μM” value on CDK2/Cyclin A (at 0.03 μM) is 50%. Moreover, in the experiment with HCT-116 cell line (HCT-116 cells, at 0.1 μM), the “HCT-116 % Inhibition at 0.1 μM” value is recorded as 20%. Further, in the experiment with HCT-116 cell line (HCT-116 cells), the “HCT-116 5 Inhibition at 0.25 μM” value amounted to 62. Besides, the “CDK4 % Inhibition at 0.03 μM” value in experiment [1] (at 0.03 μM) is given as 75%.
For the compound `CCCCc1ccc(C(=O)N2CCC(Nc3nc(N)c(C(=O)c4c(F)cccc4F)s3)CC2)cc1` [Example Q36], the “CDK2 % Inhibition at 0.03 μM” value on CDK2/Cyclin A (0.03 μM compound, Table 4) worked out at 16%. The “HCT-116 % Inhibition at 0.1 μM” value with HCT-116 cell line (setting [2]) is 0.49%. Also, the “HCT-116 % Inhibition at 0.25 μM” value with HCT-116 cell line (HCT-116, Table 4) is given as 31%. Also, in experiment [1] (0.03 μM compound, Table 4), the “CDK4 % Inhibition at 0.03 μM” value is 45%.
Regarding `Nc1nc(NC2CCN(C(=O)CNc3ccc(O)cc3)CC2)sc1C(=O)c1c(F)cccc1F` [Example R169], the “CDK2 % Inhibition at 0.03 μM” value on CDK2/Cyclin A (at 0.03 μM) was 22%. Also, in the experiment with HCT-116 cell line (HCT-116 cells, at 0.1 μM), the “HCT-116 % Inhibition at 0.1 μM” value is 0%. The “HCT-116 5 Inhibition at 0.25 μM” value in the experiment with HCT-116 cell line (HCT-116 cells) was 39. The “CDK4 % Inhibition at 0.03 μM” value in experiment [1] (at 0.03 μM) came out at 40%.
